Where two headings read alike, the source gives them in different places.
Columns and labels:
in vitro [1] = assay: in vitro; parameters: species or system HB2, HEK293; details: human, ccd841 cells
BSA = molecular target: T1, BSA (Bos taurus, UniProt P02769); parameters: Intact protein LC/MS covalent labelling, fragments in pools of five, 200 uM each, 4 °C; details: 24 h, 4 °C, pool of five; 200 µM; covalent
T1 construct: gene ALB

NUDT7 = molecular target: T2, NUDT7 (Homo sapiens, UniProt P0C024); parameters: Intact protein LC/MS covalent labelling, fragments in pools of five, 200 uM each, 4 °C; details: 24 h, 4 °C, pool of five; 200 µM; covalent
T2 construct: residues 14-235, E. coli, pNIC28-Bsa4, N-terminal His6 tag removed by TEV, construct 26672 Da

PCAF = molecular target: T3, PCAF (Homo sapiens, UniProt Q92831); parameters: Intact protein LC/MS covalent labelling, fragments in pools of five, 200 uM each, 4 °C; details: 24 h, 4 °C, pool of five; 200 µM; covalent
T3 construct: gene KAT2B

OTUB2 (OTUB2A) = molecular target: T4, OTUB2 (OTUB2A) (Homo sapiens, UniProt Q96DC9); parameters: Intact protein LC/MS covalent labelling, fragments in pools of five, 200 uM each, 4 °C; details: 24 h, 4 °C, pool of five; 200 µM; covalent
T4 construct: full length residues 1-234, E. coli BL21(DE3)-R3, His tag removed by TEV, construct 27312 Da
T4 sequence (Q96DC9 1-234): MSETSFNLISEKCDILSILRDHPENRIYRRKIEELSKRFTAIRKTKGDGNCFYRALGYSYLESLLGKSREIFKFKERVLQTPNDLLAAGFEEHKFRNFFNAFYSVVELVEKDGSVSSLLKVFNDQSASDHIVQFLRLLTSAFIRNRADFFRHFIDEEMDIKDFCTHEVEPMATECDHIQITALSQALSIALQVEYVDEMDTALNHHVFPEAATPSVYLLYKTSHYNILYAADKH

NNMT (hNNMT) = molecular target: T5, NNMT (hNNMT) (Homo sapiens, UniProt P40261); parameters: Intact protein LC/MS covalent labelling, fragments in pools of five, 200 uM each, 4 °C; details: 24 h, 4 °C, pool of five; 200 µM; covalent
T5 construct: wild type, N-terminal His6 tag kept (no cleavage described), E. coli, construct 31248 Da
T5 sequence (P40261 1-264): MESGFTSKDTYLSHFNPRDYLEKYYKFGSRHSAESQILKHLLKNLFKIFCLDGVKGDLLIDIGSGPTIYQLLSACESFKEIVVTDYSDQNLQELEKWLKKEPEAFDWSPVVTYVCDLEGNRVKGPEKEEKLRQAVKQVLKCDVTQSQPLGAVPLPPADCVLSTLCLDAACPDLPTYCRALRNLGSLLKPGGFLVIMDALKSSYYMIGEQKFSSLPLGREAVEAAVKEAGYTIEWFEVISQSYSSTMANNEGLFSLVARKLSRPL

in vitro [2] = assay: in vitro; parameters: species or system CCD841, HEK293; details: human, hb2 cells, read-out: HB-2 Cells Viability (%)
in vitro [3] = assay: in vitro; parameters: species or system HB2, CCD841; details: human, hek293 cells

T2 sequence (P0C024 14-235): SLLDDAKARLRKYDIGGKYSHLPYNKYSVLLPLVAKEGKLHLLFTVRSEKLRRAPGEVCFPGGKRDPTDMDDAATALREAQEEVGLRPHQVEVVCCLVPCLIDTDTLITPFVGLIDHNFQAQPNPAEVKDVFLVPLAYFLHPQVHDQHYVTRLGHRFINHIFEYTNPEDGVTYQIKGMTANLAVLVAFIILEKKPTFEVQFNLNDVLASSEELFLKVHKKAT
T3 sequence (Q92831 whole entry, the tested form may be a part): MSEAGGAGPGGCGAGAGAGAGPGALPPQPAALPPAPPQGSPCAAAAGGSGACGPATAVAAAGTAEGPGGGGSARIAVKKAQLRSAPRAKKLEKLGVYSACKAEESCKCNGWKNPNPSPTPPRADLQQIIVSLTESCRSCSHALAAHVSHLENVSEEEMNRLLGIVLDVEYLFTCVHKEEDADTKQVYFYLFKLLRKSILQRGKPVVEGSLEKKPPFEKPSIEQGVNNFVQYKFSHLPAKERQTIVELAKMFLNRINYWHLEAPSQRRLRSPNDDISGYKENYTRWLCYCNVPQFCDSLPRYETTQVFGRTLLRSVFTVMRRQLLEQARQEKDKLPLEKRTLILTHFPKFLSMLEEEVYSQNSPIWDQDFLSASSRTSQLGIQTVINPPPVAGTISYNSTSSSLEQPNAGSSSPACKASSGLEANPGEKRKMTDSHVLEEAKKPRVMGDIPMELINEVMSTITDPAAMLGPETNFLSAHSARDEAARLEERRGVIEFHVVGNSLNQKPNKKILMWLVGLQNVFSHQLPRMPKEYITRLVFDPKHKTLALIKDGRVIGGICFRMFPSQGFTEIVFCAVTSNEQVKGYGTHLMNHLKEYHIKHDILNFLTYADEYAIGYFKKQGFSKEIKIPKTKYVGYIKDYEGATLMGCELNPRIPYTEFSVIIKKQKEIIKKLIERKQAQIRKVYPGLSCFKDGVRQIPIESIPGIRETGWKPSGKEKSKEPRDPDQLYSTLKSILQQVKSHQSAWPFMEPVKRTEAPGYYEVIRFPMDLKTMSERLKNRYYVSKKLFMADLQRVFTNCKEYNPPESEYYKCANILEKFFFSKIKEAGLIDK
T1 sequence (P02769 whole entry, the tested form may be a part): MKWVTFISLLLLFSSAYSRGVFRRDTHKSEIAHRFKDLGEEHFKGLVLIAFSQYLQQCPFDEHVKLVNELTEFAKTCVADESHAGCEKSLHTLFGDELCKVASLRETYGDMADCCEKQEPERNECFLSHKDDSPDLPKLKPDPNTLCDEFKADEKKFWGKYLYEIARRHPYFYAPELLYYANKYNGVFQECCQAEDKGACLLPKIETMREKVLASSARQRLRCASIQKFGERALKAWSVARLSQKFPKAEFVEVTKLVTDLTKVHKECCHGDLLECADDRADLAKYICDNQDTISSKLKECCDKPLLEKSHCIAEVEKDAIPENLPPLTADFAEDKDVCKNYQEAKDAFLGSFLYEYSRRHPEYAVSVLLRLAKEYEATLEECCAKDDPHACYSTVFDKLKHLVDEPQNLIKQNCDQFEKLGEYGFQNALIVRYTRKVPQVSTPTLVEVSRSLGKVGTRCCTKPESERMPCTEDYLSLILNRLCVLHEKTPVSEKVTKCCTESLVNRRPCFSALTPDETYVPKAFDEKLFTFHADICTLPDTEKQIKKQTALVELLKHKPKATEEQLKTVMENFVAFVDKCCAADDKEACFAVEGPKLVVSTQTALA

| Structure (SMILES) | viability at 48 h, 10 µM (in vitro [1]) | BSA (BSA) | NUDT7 (NUDT7) | PCAF (PCAF) | OTUB2 (OTUB2 (OTUB2A)) | NNMT (NNMT (hNNMT)) | viability at 48 h, 10 µM (in vitro [2]) | viability at 48 h, 10 µM (in vitro [3]) |
| --- | --- | --- | --- | --- | --- | --- | --- | --- |
| C=CC(=O)NCC1=CS(=O)(=O)c2ccccc21 [PCM-0102563] | 110% | 0 | 0 | 0 | 0.04 | 0.07 | 102% | 82.9% |
| C=CC(=O)N1CCCC(c2nncn2C2CC2)C1 (stereo not drawn) [PCM-0102567] | 112% | 0 | 0 | 0 | 0 | 0 | 102% | 113% |
| C=CC(=O)NCC1CCC2(CCOCC2)C1O (stereo not drawn) [PCM-0102569] | 110% | 0 | 0.11 | 0 | 0 | 0.36 | 110% | 84.7% |
| C=CC(=O)N1CCCC1C1COCCC1(C)O (stereo not drawn) [PCM-0102571] | 107% | 0 | 0 | 0 | 0 | 0 | 107% | 104% |
| C=CC(=O)Nc1cccc(C(F)(F)F)c1 [PCM-0102573] | 105% | 0 | 0 | 0 | 0 | 0 | 103% | 108% |
| COc1ccccc1C(=O)NC(=O)CCl [PCM-0102574] | 127% | 0 | 0 | 0 | 0 | 0 | 104% | 118% |
| C=CC(=O)N1CCN(C(=O)Nc2ccc(C)c(Cl)c2)CC1 [PCM-0102604] | 122% | 0 | 0 | 0 | 0 | 0 | 74.6% | 91.5% |
| C=CC(=O)N1CCn2nc(C)nc2C1 [PCM-0102605] | 104% | 0 | 0 | 0 | 0 | 0 | 102% | 88.4% |
| C=CC(=O)NC1(C(N)=O)CCCOC1 (stereo not drawn) [PCM-0102608] | 107% | 0 | 0 | 0 | 0 | 0 | 107% | 118% |
| C=CC(=O)N1CCCCC1c1ccc(C(=O)NC)n1C (stereo not drawn) [PCM-0102610] | 112% | 0 | 0 | 0 | 0 | 0.14 | 106% | 99.3% |
| C=CC(=O)N1CC(C)(C)C1c1cccs1 (stereo not drawn) [PCM-0102611] | 95.8% | 0 | 0 | 0 | 0 | 0 | 107% | 71.3% |
| C=CC(=O)N1CCC(C(=O)[O-])CC1.[Na+] [PCM-0102613] | 125% | 0 | 0 | 0 | 0 | 0 | 98.2% | 114% |

From PMC6556873, “Rapid Covalent-Probe Discovery by Electrophile-Fragment Screening” (Journal of the American Chemical Society, 2019)
